Test results published in patent US20240165112A1, “THERAPY FOR THE TREATMENT OF CANCER” (Bristol-Myers Squibb Company, priority 2022, published 2024).

Assays:
Type in all cases: cell-based, human
[1] = tested on: Eleven patient-derived tumor organoids; test: 3D clonogenic assay, summary over the organoid panel; conditions: for median percent colony reduction relative to DMSO: 11 organoid cultures
Description: (§1) Five tumor cell lines (4T1.2, A549, EMT6, NCI-H460, and HT29) were treated with a range of paclitaxel or 5-FU concentrations in the presence of dimethlylsulfoxide (DMSO), 5 μM Compound 1, or 20 μM Compound 1. Cells were imaged 4 days after treatment and percent confluence was assessed by image quantification. EC50 values for cell confluence were used to assess chemotherapy potency. Eleven patient-derived tumor organoids (MAXFTN449, MAXFTN2990, PAXF1657, PAXF2131, CXF1256, CXF2129, CXF2061, LXFE2478, LXFE690, LXFA677, LXFA644) were seeded in a 3D matrix and treated with a range of paclitaxel, 5-FU, SN38, Gemcitabine, oxaliplatin, and carboplatin concentrations in the presence of DMSO, 5 μM Compound 1, or 20 μM Compound 1. After 8 to 13 days in culture, colonies were stained, imaged, and counted. A dose response curve was generated for chemotherapy alone or chemotherapy in combination with 5 or 20 μM Compound 1. Combination activity was defined as a percentage of the area under the chemotherapy dose response curve (cAUC) for Compound 1 combination groups compared to the cAUC of chemotherapy alone.
(§2) The clonogenic assay was carried out in a 96 well plate format using ultra low attachment plates. For each test, plates were prepared as follows: each test well contained a layer of semi-solid medium with tumor cells (50 μL), and a second layer of medium supernatant with or without test compound (100 μL). The cell layer consisted of […] to 12.5×10^3 tumor cells per well, which were seeded in 50 μL/well cell culture medium (IMDM, supplemented with 20% (v/v) fetal bovine serum, 50 μg/mL gentamicin, and 0.4% (w/v) agar). After 24 hours, the soft-agar layer was covered with 90 μL of the same culture medium without agar, and 10 μL of control medium or test compound after serial dilution in DMSO for the duration of the experiment (continuous exposure, 100 μL drug overlay).
After 8 to 13 days in culture, colonies were stained, imaged, and counted.

[2] = tested on: MAXFTN449 organoid, breast cancer (triple negative); test: 3D clonogenic assay in patient derived organoids; conditions: 8 to 13 days
Description: as §1
(§3) For combination experiments, working stock solutions of all compounds were prepared in DMSO at concentrations of 660-fold the highest test concentration used and stored at −20° C. Platin compounds were prepared freshly on each treatment day. On each day of an experiment, an aliquot of the working stock solutions was used and stored at room temperature prior to and during treatment. First, 1:2 dilutions of 660-fold concentrated working stocks were prepared in DMSO (in case of monotherapy controls), or equal amounts of the compound working stocks were mixed (in case of drug combinations). Then, different dilutions of these 330-fold concentrated solutions were prepared in DMSO to give an 8×2 matrix combination layout with conditions. The DMSO dilutions were further diluted […] into cell culture medium (IMDM, supplemented with 20% (v/v) fetal bovine serum, and 50 μg/mL gentamicin) in an intermediate dilution plate. Finally, 10 μL taken from the intermediate dilution plate were transferred to 140 μL of cells and medium per well of the final assay plate. Thus, the DMSO dilutions used for the mono- and the combination-treatment were diluted 1:660, and the DMSO concentration in the assay was […].
(§4) Tumors were passaged as subcutaneous xenografts in NMRI nu/nu mice. At a tumor volume of 400 to 1000 mm^3, tumor-bearing mice were euthanized, and tumors were collected under sterile conditions without delay. Tumors were mechanically disaggregated and subsequently incubated with an enzyme cocktail consisting of collagenase type IV (41 U/mL), DNase I (125 U/mL), hyaluronidase type III (100 U/mL), and dispase II (1 U/mL) in RPMI 1640 medium at 37° C. for 60 to 120 minutes. Cells were passed through sieves of 100 μm and 40 μm mesh size, and washed with RPMI 1640 medium. The percentage of viable cells was determined in a Neubauer-hemocytometer using trypan blue exclusion. Aliquots of the cells were frozen down and stored in liquid nitrogen vapor phase. On each day of an experiment, a frozen aliquot of tumor cells was thawed and used for preparation of assay plates.
as §2

[3] = tested on: MAXFTN2990 organoid, breast cancer (triple negative); test: 3D clonogenic assay in patient derived organoids; conditions: 8 to 13 days
Description: as §1, §3, §4, §2

[4] = tested on: LXFE690 organoid, NSCLC (squamous subtype); test: 3D clonogenic assay in patient derived organoids; conditions: 8 to 13 days
Description: as §1, §3, §4, §2

[5] = tested on: PAXF2131 organoid, Pancreatic cancer; test: 3D clonogenic assay in patient derived organoids; conditions: 8 to 13 days
Description: as §1, §3, §4, §2

[6] = tested on: LXFA644 organoid, NSCLC (adenocarcinoma subtype); test: 3D clonogenic assay in patient derived organoids; conditions: 8 to 13 days
Description: as §1, §3, §4, §2

[7] = tested on: CXF2061 organoid, colon cancer; test: 3D clonogenic assay in patient derived organoids; conditions: 8 to 13 days
Description: as §1, §3, §4, §2

[8] = tested on: LXFE2478 organoid, NSCLC (squamous subtype); test: 3D clonogenic assay in patient derived organoids; conditions: 8 to 13 days
Description: as §1, §3, §4, §2

[9] = tested on: CXF1256 organoid, colon cancer; test: 3D clonogenic assay in patient derived organoids; conditions: 8 to 13 days
Description: as §1, §3, §4, §2

[10] = tested on: CXF2129 organoid, colon cancer; test: 3D clonogenic assay in patient derived organoids; conditions: 8 to 13 days
Description: as §1, §3, §4, §2

[11] = tested on: PAXF1657 organoid, pancreatic cancer; test: 3D clonogenic assay in patient derived organoids; conditions: 8 to 13 days
Description: as §1, §3, §4, §2

[12] = tested on: LXFA677 organoid, NSCLC (adenocarcinoma subtype); test: 3D clonogenic assay in patient derived organoids; conditions: 8 to 13 days
Description: as §1, §3, §4, §2

## C[C@@H]1CC[C@@H](Nc2nc(NC(C)(C)C)ncc2C(N)=O)C[C@H]1O [Compound 1, 2-(tert-butylamino)-4-((1R,3R,4R)-3-hydroxy-4-methylcyclohexylamino)-pyrimidine-5-carboxamide]
[1]; 5 μM Compound 1
  organoid cultures with an average percent colony reduction greater than 20%: 8 out of 11
  median percent colony reduction relative to DMSO: 39%
[1]; 20 μM Compound 1
  organoid cultures with an average percent colony reduction greater than 20%: 10 out of 11
  median percent colony reduction relative to DMSO: 34%
[2]; Compound 1, 5 μM
  % Reduction in Colony Formation with Compound 1 compared with DMSO, Mean: 56%
[2]; Compound 1, 20 μM
  % Reduction in Colony Formation with Compound 1 compared with DMSO, Mean: 54%
[3]; Compound 1, 5 μM
  % Reduction in Colony Formation with Compound 1 compared with DMSO, Mean: −8%
[3]; Compound 1, 20 μM
  % Reduction in Colony Formation with Compound 1 compared with DMSO, Mean: 34%
[4]; Compound 1, 5 μM
  % Reduction in Colony Formation with Compound 1 compared with DMSO, Mean: 73%
[4]; Compound 1, 20 μM
  % Reduction in Colony Formation with Compound 1 compared with DMSO, Mean: 79%
[5]; Compound 1, 5 μM
  % Reduction in Colony Formation with Compound 1 compared with DMSO, Mean: 62%
[5]; Compound 1, 20 μM
  % Reduction in Colony Formation with Compound 1 compared with DMSO, Mean: 68%
[6]; Compound 1, 5 μM
  % Reduction in Colony Formation with Compound 1 compared with DMSO, Mean: 12%
[6]; Compound 1, 20 μM
  % Reduction in Colony Formation with Compound 1 compared with DMSO, Mean: 24%
[7]; Compound 1, 5 μM
  % Reduction in Colony Formation with Compound 1 compared with DMSO, Mean: 8%
[7]; Compound 1, 20 μM
  % Reduction in Colony Formation with Compound 1 compared with DMSO, Mean: 9%
[8]; Compound 1, 5 μM
  % Reduction in Colony Formation with Compound 1 compared with DMSO, Mean: 39%
[8]; Compound 1, 20 μM
  % Reduction in Colony Formation with Compound 1 compared with DMSO, Mean: 28%
[9]; Compound 1, 5 μM
  % Reduction in Colony Formation with Compound 1 compared with DMSO, Mean: 90%
[9]; Compound 1, 20 μM
  % Reduction in Colony Formation with Compound 1 compared with DMSO, Mean: 92%
[10]; Compound 1, 5 μM
  % Reduction in Colony Formation with Compound 1 compared with DMSO, Mean: 56%
[10]; Compound 1, 20 μM
  % Reduction in Colony Formation with Compound 1 compared with DMSO, Mean: 49%
[11]; Compound 1, 5 μM
  % Reduction in Colony Formation with Compound 1 compared with DMSO, Mean: 31%
[11]; Compound 1, 20 μM
  % Reduction in Colony Formation with Compound 1 compared with DMSO, Mean: 27%
[12]; Compound 1, 5 μM
  % Reduction in Colony Formation with Compound 1 compared with DMSO, Mean: 27%
[12]; Compound 1, 20 μM
  % Reduction in Colony Formation with Compound 1 compared with DMSO, Mean: 32%
